Experimental data taken from patent US20250255850A1, “PHARMACEUTICAL COMPOSITIONS FOR TREATING NEUROLOGICAL CONDITIONS” (YISSUM RESEARCH DEVELOPMENT COMPANY OF THE HEBREW …, priority 2021, published 2025).

Legend:
[1] = tested on: C57BL/6 wild-type mice; test: Novel object recognition test (NOR), SNAP-treated wild-type mice; format: in vivo, mouse
Procedure: (§1) Behavioral testing started after 2 hours of treatment.
Novel object recognition (see, FIG. 4A): The novel object test for object recognition and memory takes place in a white open field arena (45×45 cm). The test involves a set of two unique novel objects, each about the size of a mouse, constructed from two different materials and non-uniform in shape. The test consisted of one 10-minute habituation session, a 5-minute familiarization session and a 5-minute recognition test, each video tracked (Noldus Ethovision). During the habituation, animals were allowed to freely explore an empty open field. At the end of the session, they were shifted from the open field to a place in a temporary clean holding cage for about 2 minutes. Two identical objects were placed on the median line at 10 cm from each wall and the animal was returned to the open field and allowed to explore the objects for 5 minutes before being returned to its home cage. Next day, one familiar object and one novel object were placed in the open field to the location where the identical objects were placed during the familiarization session and the mouse was allowed to explore them for a 5-minute recognition test. […] Familiarization and recognition sessions were scored for total time spent investigating each object, the number of object interactions and the latency of the first object interaction. […]

[2] = Solubility in DMSO
[3] = tested on: C57BL/6 wild-type mice; test: Elevated plus maze test, SNAP-treated wild-type mice; format: in vivo, mouse
Procedure: as §1
Elevated plus maze test (see, FIG. 4C): The elevated plus-maze consisted of four arms (30×5 cm), two open, and the other two closed. The platform was made of white plexiglass. The apparatus was elevated 45 cm above the floor. The test, described in, was initiated by placing the mouse on the central platform of the maze, facing one of the open arms, and letting it move freely. Each session lasted 5 min. The time spent in the close and open arms was recorded.
An elevated plus maze test (see, FIG. 4C) was performed to evaluate the anxiety-like behaviors among the mice, typically the anxiety quantified as the time spent in the closed arms.

[4] = tested on: C57BL/6 wild-type mice; test: Three-chambered sociability test, SNAP-treated wild-type mice; format: in vivo, mouse
Procedure: as §1
Three-chambered sociability test (see, FIG. 4B): Sociability and preference for social novelty and social recognition were tested in a three-chambered apparatus. The subjected mouse was first placed in the central, neutral chamber and allowed to explore for 10 minutes with all the doors closed. Next, doors were opened and the mouse was allowed to freely explore the other two empty chambers (1 and 2) for an additional 10 minutes. Lack of side preference was confirmed during this habituation.
Two cylindrical wire cages were placed, one in chamber 1 and the other in chamber 2. For the sociability test, the test animal was introduced to the middle chamber and allowed to adjust for 5 minutes. Then, an unfamiliar mouse was introduced into a wire cage in one of the side-chambers, and the other side-chamber remained empty. The time spent by the test mouse exploring the wire cage with an unfamiliar mouse inside was recorded for 5 minutes.
Next, to examine social memory, novel mice is introduced to the empty cage and the tested mice is examined whether they are interested in the novel mice compared to the familiar.
S-nitroso-N-acetylpenicillamines (SNAP), is an NO donor that increases the NO availability, subsequently leading to nitrosative stress and aberrant SNO signaling. […] To examine the potential effect of SNAP administration on mice behaviors, a novel object recognition test (NOR) and sociability test were performed (See, FIGS. 4A-B), and the obtained data are presented in FIGS. 2A-B, respectively.
A three-chamber sociability test was conducted as in Example 2 (see also FIG. 4B), to evaluate the interest of the mice to engage in social interaction with a stranger mouse. Generally, the mice prefer to spend more time with another mouse (sociability), and the mice have the tendency to investigate a novel intruder more than a familiar one (social novelty). […]

[5] = tested on: C57BL/6 wild-type mice; test: Marble burying test, SNAP-treated wild-type mice; format: in vivo, mouse; conditions: SNAP IP 20 mg/kg/day for 10 days; vs WT
Procedure: as §1
Marble Burying test (see, FIG. 4D): The marble-burying assay is a tool for assessing either anxiety-like and/or repetitive-like behaviors in mice. Subjects were tested in a regular clean cage (28 cm long×18 cm wide×12 cm high) with 3 cm of fresh bedding. The subject was first placed in the empty cage for a 5-min habituation. It was then temporary placed in an empty clean cage while 20 dark blue glass marbles (15 mm in diameter) were positioned over the bedding equidistant in a 4×5 arrangement to cover the whole cage surface. The subject was then returned in the test cage and allowed to explore and bury the marbles during a 15-min session that was videotaped. At the end of the session the subject was removed and the number of marbles buried (50% marble covered by bedding material) was recorded.
A marble burying test (as shown in FIG. 4D) was utilized as an indication for repetitive behaviors and restricted interests.

[6] = tested on: SHSY-5Y cells; test: Immunofluorescence of 3-nitrotyrosine and synaptophysin in SHANK3-silenced SHSY-5Y cells; format: cell-based, human
Procedure: A cell culture model for ASD was developed by silencing SHANK3 with an siRNA (5-3 RNA)-CGAUGAUAAGCAGUUUGCAAAGCUU (SEQ ID NO: 3) in the neuronal cell line SHSY-5Y cells, followed by silencing with of nNOS using the following RNA (5-3) CCUUGUCCAACAUGCUCCUAGAGAU (SEQ ID NO: 4).
SHSY-5Y Cells (with or without treatment) were fixed post treatment in 4% paraformaldehyde, incubated with the Primary rabbit MAP2+ primary mouse monoclonal 3-nitrotyrosine (FIGS. 9A-B) and with Primary rabbit monoclonal synaptophysin+primary mouse Map2 (FIGS. 9C-D). Thereafter, cells were incubated with anti-mouse secondary Alexa fluor488 (green)/594 (red), and anti-rabbit secondary Alexa fluor 488 (green)/594 (red), conjugated secondary antibodies. After washing, cells were mounted with DAPI (Blue). The images were acquired using a confocal microscope. Each group contained nine independent sets of experiments (initial cell seed number—about 10^6).
To support the effect of nucleic acid silencing on a SHANK3 silenced background, the present inventors applied siRNA to nNOS on […] SHSY-5Y Cells.

[7] = SNAP IP 20 mg/kg/day for 7 days, wild-type mice vs control group
[8] = SNAP IP 20 mg/kg/day for 10 days, C57BL/6 WT mice

Substance: S-nitroso-N-acetylpenicillamines [SNAP]
- preference for the novel object (NOR test) [1, 7]: failed to display a preference for the novel object
- preference for the novel object (NOR test) [1, 8]: failed to display a preference for the novel object
- solubility in DMSO [2]: 20 mg/mL
- time in the closed arms (elevated plus maze) ([3]; SNAP IP 20 mg/kg/day for 10 days, vs WT group): spent significantly more time in the closed arms compared to WT group
- time spent in the open arms (elevated plus maze) ([3]; SNAP i.p. 20 mg/kg daily for 10 days, vs WT): significantly decreased time in the open arms
- preference to engage in social interaction (sociability test) [4, 7]: did not exhibit any preference to engage in social interaction
- preference for novel mouse (S2) vs familiar (S1) (second session, social novelty) [4, 8]: did not exhibit any significant preference to engage in social interaction with the mice
- time interacting with stranger mouse vs empty cage (first session, sociability) [4, 8]: spent more time interacting with the stranger mouse than with the empty cage
- number of marbles buried [5]: buried significantly less marbles

Substance: SHANK3 si-RNA: siRNA CGAUGAUAAGCAGUUUGCAAAGCUU (SEQ ID NO: 3) silencing SHANK3 (CGAUGAUAAGCAGUUUGCAAAGCUU; listed as RNA, chemistry not given here)
- synaptophysin expression (immunofluorescence) ([6]; SHSY-5Y cells treated with SHANK3 si-RNA alone): downregulated

Substance: siRNA to nNOS: RNA (5-3) CCUUGUCCAACAUGCUCCUAGAGAU (SEQ ID NO: 4) silencing nNOS (CCUUGUCCAACAUGCUCCUAGAGAU; listed as RNA, chemistry not given here)
- synaptophysin protein expression (immunofluorescence) ([6]; nNOS knockdown in the SHANK3 si-RNA group (double knockdown)): recovery in synaptophysin protein expression
- nitrotyrosine production (immunofluorescence) ([6]; nNOS silencing in the SHANK3 si-RNA group (double knockdown)): reduction in nitrotyrosine production
